Results on 9 compounds are retold here after patent publication EP0330353A1, “Tetrazole excitatory amino acid receptor antagonists” (ELI LILLY AND COMPANY, priority 1988, dated 1989).

Where two headings read alike, the source gives them in different places.

For test [1], the system named is NMDA. Description: In vivo NMDA-induced lethality in mice. Details: species or system Male Charles River CF1 mice. The following applies: for minimal effective dose: Mus musculus, 20 min, read-out: MED. Here is the method:
A typical receptor substance is characterized by N-methyl-D-aspartic acid (NMDA).
Male Charles River CF1 mice held in the laboratory for a minimum of three days were housed, 12 per cage, on sawdust bedding in clear plastic boxes with wire mesh lids. Animals were allowed full access to feed and water prior to testing.
Unless otherwise specified, all test compounds were formulated in dimethylsulfoxide (DMSO) and diluted to a 5% DMSO/sterile water solution by volume. Dosing began at 160 mg/kg. If any significant activity was detected, the test drug dose was divided in half until no more activity was detected. All test compounds were administered using the intraperitoneal injection (i.p.) route at a volume of 0.01 cc/gm.
Five mice were taken from the plastic cages, dosed with the test compound and placed individually in clear plastic observation cages. After a 30 minute drug absorption period, the mice were injected intra-peritoneally with 200 mg/kg of NMDA. This dose of NMDA produces death in more than 95% of control-treated animals. Twenty minutes after the NMDA injection the animals were scored as dead or alive. Data are reported as the minimum effective dose (MED) to block NMDA-induced lethality. Protection from lethality is met by the survival of at least three of the five animals. Data for AP5 and AP7, known excitatory amino acid antagonists, are provided for comparison.

The subject of test [2] is NMDA receptors. Description: NMDA-induced seizures in neonatal rats. Type of test: in vivo, neonatal (7 to 8 days old) Sprague-Dawley rats. To be noted: lowest dose preventing NMDA-induced seizures in at least 3 of 5 neonatal rats; test drug i.p. in saline 30 min before NMDA 20 mg/kg i.p.; observed 30 min. Here is the method: In another experiment, male or female neonatal (7 to 8 days old) Sprague-Dawley rats were removed from the dam and placed in plastic observation chambers that were maintained at 30-32°C. All test drugs were dissolved in normal saline. Activation of NMDA receptors in these rats leads to a readily observable generalized motor seizure in over 95% of the animals.
Animals were injected by the intraperitoneal route with the test drug (1 ml/100 g of body weight) and observed for a 30 minute period for seizure (potential agonist) activity. They were then injected with NMDA at a dose of 20 mg/kg body weight i.p. to test for antagonist activity. […] Generally, five animals were used at each dose of compound. […] The minimum effective dose was the lowest test dose which prevented NMDA-induced seizures in at least three out of five animals.

[3] abbreviates: minimum effective dose to block NMDA-induced lethality (survival of at least 3 of 5 mice), test compound i.p. 30 min before 200 mg/kg NMDA i.p., scored 20 min after NMDA.

For the compound `O=C(O)[C@H]1C[C@@H](CCc2nn[nH]n2)CCN1` (racemic) [Example 1, cis-(±)-4-[2-(1(2)H-Tetrazol-5-yl)ethyl]-2-piperidinecarboxylic acid], the minimal effective dose in test [1] (setting [3]) was 20 mg/kg. In the case of `NC(CCCCCP(=O)(O)O)C(=O)O` (stereo not drawn) [AP7, reference compound], in test [1], the minimal effective dose was determined as 160 mg/kg. As for “cis-(±)-4-[(1(2)-Methyl-1(2)H-tetrazol-5-yl)methyl]-2-piperidinecarboxylic acid [Example 7]”, the MED in test [1] (setting [3]) was found to be 160 mg/kg. `CCOC(=O)C1CC(Cc2nn[nH]n2)CCN1` (racemic) [Example 6, Ethyl cis-(±)-4-[(1(2)H-tetrazol-5-yl)methyl]-2-piperidinecarboxylate]: the MED in test [2] is on record as 200 mg/kg.

Turning to `O=C(O)C1C/C(=C\c2nn[nH]n2)CCN1` (racemic) [Example 4, Z-(±)-4-[(1(2)H-Tetrazol-5-yl)methylidene]-2-piperidinecarboxylic acid], the minimal effective dose in test [1] (setting [3]) turned out to be 20 mg/kg. The same measure, in the same setting: then `O=C(O)[C@H]1C[C@@H](Cc2nn[nH]n2)CCN1` (racemic) [Example 3, cis-(±)-4-[(1(2)H-Tetrazol-5-yl)methyl]-2-piperidinecarboxylic acid], with 10 mg/kg; and `CCCCOC(=O)[C@H]1C[C@@H](Cc2nn[nH]n2)CCN1` (racemic) [Example 5, Butyl cis-(±)-4-[(1(2)H-tetrazol-5-yl)methyl]-2-piperidinecarboxylate], with 160 mg/kg. As to `O=C(O)[C@H]1C[C@@H](CCCc2nn[nH]n2)CCN1` (racemic) [Example 2, cis-(±)-4-[3-(1(2)H-Tetrazol-5-yl)propyl]-2-piperidinecarboxylic acid], the minimal effective dose in test [1] (setting [3]) was 10 mg/kg. Turning to `NC(CCCP(=O)(O)O)C(=O)O` (stereo not drawn) [AP5, reference compound], the minimal effective dose in test [1] (setting [3]) was 80 mg/kg.
